Literature values, collected in US11718625B2, “Near-infrared fluorescent molecule active targeting folate receptor and preparation method thereof” (NANJING NUOYUAN MEDICAL DEVICES CO., LTD, priority 2020, dated 2023).

Experiments:
[1] = at maximum injection dosage less than 2 mg/kg; literature report and own detection data
tumor = conditions: clinical practice

quantum yield (in an aqueous solution): less than 1%
wavelength of emitted fluorescence (under irradiation with the wavelength of 780 nm): 830 nm
concentration of the ICG in the human body tumors [1]: 10 to 1000 nM
SMILES: CC1(C)C(/C=C/C=C/C=C/C=C2\N(CCCCS(=O)(=O)O)c3ccc4ccccc4c3C2(C)C)=[N+](CCCCS(=O)(=O)[O-])c2ccc3ccccc3c21 [ICG, Indocyanine green]
waiting time to generate sufficient fluorescence contrast (tumor: normal tissue) (tumor): at least 12 hours
